# Results reported in patent EP1123387B1, “MN GENE AND PROTEIN” (INSTITUTE OF VIROLOGY, priority 1998, dated 2000).
# Read-outs that look alike come from different tables or passages of the source. Where a SMILES comes first, the peptide text is derived from it.
# What was measured:
# [1] = test system: Rat2TK- cells and C33 human cervical carcinoma cells transfected with pMN-HSVtk
# MN/CA IX = MN/CA IX (Homo sapiens, UniProt Q16790); assay: Cell adhesion assay of Example 2 (inhibition of cell attachment to MN/CA IX dots); assay type: cell-based; conditions: nonapeptides of 7 + 2 aa
# [2] = target: T1, epitope of immobilized GST-MN (Homo sapiens, UniProt Q16790); assay: Competition ELISA (peptides binding to the epitope of immobilized GST-MN); conditions: nonapeptides of 7 + 2 aa
# T1 construct: expressed from pGEX-3X-MN containing the cDNA for the MN protein without the signal peptide; made in house; host or cells: bacteria (E. coli XL1-Blue)
# Method: (§1) ELISA. Purified GST-MN [Zavada et al. (1993), supra] at concentration 10 ng /ml in carbonate buffer pH 9.2 was adsorbed for 3 h in Maxisorb strips (NUNC). After washing and blocking (1 h) with 0.05% Tween 20 in PBS, 50µl/well of the antibody + antigen mixtures were added. […] These mixtures were adsorbed for 1.5 h, followed by washing with Tween-PBS. Bound antibody was detected by antimouse lgG conjugate with peroxidase (SwAM-Px, SEVAC, Prague), diluted 1:1000. In the color reaction OPD (o-phenylenediamine dihydrochloride, Sigma) 1 mg/ml in 0.1 M citrate buffer pH 5.0 was used. To this H2O2 was added to final concentration 0.03%. This system is balanced so as to allow assay for antigen competing for M75 as well as for peptides binding to the epitope of immobilized GST-MN.
# MN/CA IX. As an alternative to monoclonal antibodies, we set out to select oligopeptides exerting affinity to M75 epitope as well as to MN/CA IX receptor binding site from a phage display library of random heptapeptides - Ph.D.-7. Our aim was to select phages containing the desired heptapeptides by panning on immobilized peptide SEQ ID NO: 106 and subsequent elution with M75. Eluted phage was multiplied in appropriate bacteria and subjected to 4 more cycles of panning and elution. From the selected phage population, 10 plaques were picked, amplified and the heptapeptide-coding region was sequenced. Only 3 heptapeptides were represented. Those three heptapeptides, after adding alanine on both sides, are the following nonapeptides: […] [SEQ ID NO: 137]; […] [SEQ ID NO: 138]; and […] [SEQ ID NO: 139]. The last heptapeptide, synthesized again with added terminal alanines as nonapeptide […] [SEQ ID NO: 140], was identified by panning on GST-MN and eluted with acetazolamide. This last peptide has affinity to the active site of MN/CA IX carbonic anhydrase. We synthesized these peptides of 7 + 2 aa and tested them in competition ELISA and in cell adhesion inhibition. […] In all of those 4 nonapeptides, the C-terminal […] as amide.
# [3] = Tolerance of cell cultures to acetazolamide; assay type: cell-based, mouse; conditions: mouse, nih3t3 cells; confluent cultures, 3 days; read-out: concentration tolerated without any signs of toxicity and without any effect on cell morphology
# NIH3T3 cells = assay: Tolerance of cell cultures to acetazolamide; assay type: cell-based, mouse; conditions: sparse cultures
# HeLa = assay: Tolerance of cell cultures to acetazolamide; assay type: cell-based, human; conditions: sparse cultures
# [4] = Tolerance of cell cultures to acetazolamide; assay type: cell-based, human; conditions: human, hela cells; confluent cultures, 3 days; read-out: concentration tolerated without any signs of toxicity and without any effect on cell morphology
# [5] = test system: NIH3T3 cells freshly transformed with the [pGD.MN + MLV] complex; assay: Effect on morphologic transformation by MN; assay type: cell-based, mouse; conditions: 10^-5M, 4 days of incubation
# Method: Thus, 10^-5M acetazolamide was added to NIH3T3 cells freshly transformed with the [pGD.MN + MLV] complex. After 4 days of incubation, the colonies were fixed and stained. No difference was seen between cells growing in the presence or absence of acetazolamide; both were indistinguishable from correctly transformed NIH3T3 cells. Thus, the enzymatic activity of carbonic anhydrase is not relevant for the transforming activity of MN protein.
# MAb M75 = assay: Competition ELISA with M75 (antigen competing for M75); assay type: binding, mouse; conditions: for concentration causing 50% inhibition: GST-MN adsorbed, MAb 75 ascites fluid 10^-6; for reactive with the M75 MAb: test not given
# Method: as §1
# Identification of the epitope recognized by Mab M75. Preliminary mapping of M75 epitope employing partial sequences of extracellular parts of MN/CA9 cDNA expressed from bacterial vectors and tested on Western blots located it in PG region. For exact mapping, our strategy was to synthesize partially overlapping oligopeptides of 15-25 aa covering the PG domain and test them in competition ELISA with M75. According to the results, this was followed by a series of 6-12 aa oligopeptides. A major part of the PG domain consists of a 6-fold tandem repeat of 6 aa (aa 61 - 96) [SEQ ID NO: 97]; 4 repeats are identical (GEEDLP) [SEQ ID NO: 98] and 2 contain 2 aa exchanged (SEEDSP [SEQ ID NO: 141] and REEDPP [SEQ ID NO: 142]).
Compound,activity in cell adhesion inhibition (MN/CA IX),activity in competition ELISA [2],reactive with the M75 MAb (MAb M75),further results
"Nc1nc(O)c2ncn(COC(CO)CO)c2n1 [GVC, ganciclovir]",–,–,–,cells killed [1]: up to 95%
CSCC[C@H](NC(=O)[C@H](CCCCN)NC(=O)[C@H](CCCCN)NC(=O)[C@H](C)N)C(=O)N[C@@H](CCCCN)C(=O)N[C@@H](CCCNC(=N)N)C(=O)N[C@@H](CCCNC(=N)N)C(=O)N[C@@H](CCCCN)C(=O)N[C@@H](C)C(N)=O [SEQ ID NO: 137] (H-AKKMKRRKA-NH2),less active,less active,–,–
CC[C@H](C)[C@H](NC(=O)[C@H](C)N)C(=O)N[C@H](C(=O)N[C@@H](Cc1ccccc1)C(=O)N[C@@H](CC(N)=O)C(=O)N[C@@H](C)C(=O)N[C@@H](CCC(N)=O)C(=O)N[C@@H](Cc1ccc(O)cc1)C(=O)N[C@@H](C)C(N)=O)[C@@H](C)O [SEQ ID NO: 138] (H-AITFNAQYA-NH2),highest activity,highest activity,–,–
CC(C)[C@H](NC(=O)[C@@H]1CCCN1C(=O)[C@H](C)NC(=O)[C@H](CO)NC(=O)[C@H](C)NC(=O)[C@H](CO)NC(=O)[C@H](C)N)C(=O)N[C@@H](CO)C(=O)N[C@@H](C)C(N)=O [SEQ ID NO: 139] (H-ASASAPVSA-NH2),marginally positive only in ELISA,marginally positive,–,–
CC(C)C[C@H](NC(=O)[C@@H]1CCCN1C(=O)[C@H](CO)NC(=O)[C@H](CCCNC(=N)N)NC(=O)[C@@H](NC(=O)[C@H](CCC(N)=O)NC(=O)CNC(=O)[C@H](C)N)[C@@H](C)O)C(=O)N[C@@H](C)C(N)=O [SEQ ID NO: 140] (H-AGQTRSPLA-NH2),inactive,inactive,–,–
CC(=O)Nc1nnc(S(N)(=O)=O)s1 [acetazolamide],–,–,–,MNTC at 72 h [3]: 10 to 1000 µM; cell growth (NIH3T3 cells; 10^-4M): partial inhibition; cell growth (NIH3T3 cells; 10^-5M): did not inhibit cell growth; cell growth (HeLa; 10^-4M): partial inhibition; cell growth (HeLa; 10^-5M): did not inhibit cell growth; MNTC at 72 h [4]: 10 to 1000 µM; difference between transformed cells growing in the presence or absence of the drug [5]: No difference
EDPPGEEDLPGEEDLPGEEDLPEVC [SEQ ID NO: 106],–,–,reactive,concentration causing 50% inhibition (MAb M75; competition ELISA): 1 ng/mL
GEEDLPSEEDSPREEDPPGEEDLPGEC [SEQ ID NO: 105],–,–,reactive,fold less active (than SEQ ID NOS: 104 and 106) (MAb M75; competition ELISA): 1000 x
GGSSGEDDPLGEEDLPSEEDSPC [SEQ ID NO: 104],–,–,reactive,concentration causing 50% inhibition (MAb M75; competition ELISA): 1 ng/mL
